Legend:
[1] = test system: thioredoxin system; assay: Reductase activity assay, day 14 culture samples, thioredoxin system; type: biochemical, Chinese Hamster; settings: day 14, 0.5 μM ATG
Experimental: The total reductase activity was determined in the absence of any inhibitor. […] Thus, the difference in activity between a sample with ATG, and a sample without any inhibitor, indicates the amount of reductase activity contributed the thioredoxin system. […] Thus, the difference in reductase activity between a sample with 2-AAPA, and a sample without any inhibitor, indicates the amount of reductase activity contributed by the glutathione system. Although ATG and 2-AAPA are provided as exemplary specific inhibitors, other specific inhibitors discussed above can be employed in this assay instead of ATG and 2-AAPA.
(§1) Briefly, culture samples were thawed on ice. […] The samples were then allowed to incubate 5 minutes.
(§2) Activity of the reductases was calculated as follows. […] The activity was then calculated by the following equation: […]
The reductase activities of the thioredoxin and glutathione systems were evaluated in day 14 culture samples of the same CHO cell lines A, B, C, and D, using the previously evaluated specific inhibitors 2-AAPA and ATG at 100 μM and 0.5 μM respectively. Data in FIG. 6A were normalized to viable cell density. Cell lines A, B, and C were described in Example 6, above. Cell line D is the cell line CHO CAT-S, and is stably transfected to produce an IgG1 mAb (mAb D).

[2] = test system: TrxR1 purified from a day 14 culture of cell line B; assay: DTNB reductase activity of 2'5'-ADP column fractions from cell line B, TrxR1; type: biochemical, Chinese Hamster; settings: 0.5 μM ATG, fractions B1-C2, depending on the fraction
Experimental: Reductases were purified from cell samples to verify the specificity of reductase inhibitors. A day 14 culture of mAb B (IgG antibody produced by CHO cell line B CHO-K1SV) was pelleted by centrifugation, washed once with PBS and re-suspended in 50 mM tris buffer, pH 7.5. The solution was homogenized and filtered at 0.2 μm prior to loading onto a column of 2′5′-ADP Sepharose 4B resin. The reductases were eluted using a linearly increasing gradient of 0 to 0.3 mM NADP^+ in the same tris buffer (Yadav, et al., Parasitol. Int., 62:193-198, 2013). The reductase activity of the collected fractions was determined using the assay described in Example 3. Additionally, western blot analysis was used to detect TrxR1 and GR in the collected fractions.
The reductase-specific inhibitors were evaluated above using purified recombinant mammalian enzymes from rat and human. […] The added activity from the two systems was approximately equal to the total activity detected in the absence of an inhibitor for each fraction. […] That is, if the reductase inhibitors were non-specifically inhibiting both enzymatic systems, the added reductase activity would have been […] than the reductase activity detected without any added inhibitor. […] The fractions with reductase activity were pooled and further evaluated at the inhibitor concentrations assayed in the antibody reduction assay.

[3] = test system: GR isolated from CHO cell culture; assay: mAb B reduction by pooled CHO fractions with NADPH and GSSG; type: biochemical, Chinese Hamster; settings: 3 μM Cu^2+ or 100 μM ATG, overnight room temperature
Experimental: Purified mAb B was spiked into several solutions containing different combinations of the pooled fractions (PF), recombinant Trx1, GSSG, NADPH, ATG, and Cu^2+. The solutions were incubated at room temperature overnight and the amount of intact antibody remaining was determined by capillary electrophoresis according to the protocol described above. In the first set of samples, purified mAb B was spiked into the pooled fractions with, and without, NADPH.
In the second set of samples, purified mAb B was spiked into solutions containing the pooled enzymes, NADPH, GSSG, and either no inhibitor, 3 μM Cu^2+, or 100 μM ATG. […] This solution contained GR, GSSG, and NADPH, which are needed for the glutathione system.

[4] = biological target: T1, GR/GSSG (Homo sapiens, UniProt P00390); assay: DTNB reductase activity assay, recombinant GR/GSSG; type: biochemical; settings: ATG concentrations lower than 5 μM
T1 construct: purchased Abcam
T1 sequence (P00390 44-522): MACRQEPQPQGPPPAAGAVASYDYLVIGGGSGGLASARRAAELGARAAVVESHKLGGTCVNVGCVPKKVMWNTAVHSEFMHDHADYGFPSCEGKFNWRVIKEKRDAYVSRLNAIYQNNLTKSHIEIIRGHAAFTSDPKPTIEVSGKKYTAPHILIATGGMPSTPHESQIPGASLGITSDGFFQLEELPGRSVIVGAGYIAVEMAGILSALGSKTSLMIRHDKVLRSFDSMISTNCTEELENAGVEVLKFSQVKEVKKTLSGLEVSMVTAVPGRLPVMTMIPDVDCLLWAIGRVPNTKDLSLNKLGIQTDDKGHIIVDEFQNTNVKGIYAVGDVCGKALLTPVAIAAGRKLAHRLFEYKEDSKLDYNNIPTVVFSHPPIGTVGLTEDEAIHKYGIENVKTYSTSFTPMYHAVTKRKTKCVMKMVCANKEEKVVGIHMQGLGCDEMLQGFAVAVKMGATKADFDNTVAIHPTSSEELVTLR
Experimental: as §1, §2

OC[C@H]1O[C@H]([S-])[C@H](O)[C@@H](O)[C@@H]1O.[Au+] [ATG, aurothioglucose]
share of total reductase activity from the thioredoxin system ([1]; cell line A): 35%
share of total reductase activity from the thioredoxin system ([1]; cell line B): 60%
share of total reductase activity from the thioredoxin system ([1]; cell line C): 87%
share of total reductase activity from the thioredoxin system ([1]; cell line D): 60%
share of reductase activity from TrxR1, determined with the inhibitor [2]: 60-75%
antibody reduction in pooled enzymes, NADPH, GSSG [3]: did not inhibit antibody reduction
reductase activity of solutions containing GR/GSSG [4]: unaffected

Reference: patent US20190112357A1, “PREVENTION OF PROTEIN DISULFIDE BOND REDUCTION” (MedImmune, LLC, priority 2016, published 2019)
